Among the data in patent US6410483B1, “Phenylsulfonylureas, processes for their preparation, and their use as herbicides and plant growth regulators” (Hoechst Schering AgrEvo GmbH, priority 1997, dated 2002) are melting point values, retold here.

The structures appear in SMILES notation.

What is called melting point is the temperature, or range, at which the solid turns liquid.

Take `COC(=O)NCCc1ccc(C(=O)OC)c(S(=O)(=O)NC(=O)Nc2nc(OC)cc(OC)n2)c1` [Example A5, Methyl 2-[(4,6-Dimethoxypyrimidin-2-yl)aminocarbonylaminosulfonyl]-4-[2-(methoxycarbonylamino)ethyl]benzoate]: the melting point was 165 to 169 °C (dec.).
